Experimental data as given in ChEMBL document CHEMBL4482321, “Compounds and methods for treatment of cancer by inhibiting atg4b and blocking autophagy” (2017).
pIC50: −log10 of the molar value. Activity calls are given as the source filed them. The rule behind the calls is not given here.

Legend:
[1] = target: T1, Cysteine protease ATG4B (Homo sapiens) (UniProt Q9Y4P1); test: Inhibition of ATG4B (unknown origin) at 1.6 uM incubated up to 1 hr in presence of fluorescent protein substrate by FRET-based-LC3 cleavage assay relative to control
T1 sequence (whole entry): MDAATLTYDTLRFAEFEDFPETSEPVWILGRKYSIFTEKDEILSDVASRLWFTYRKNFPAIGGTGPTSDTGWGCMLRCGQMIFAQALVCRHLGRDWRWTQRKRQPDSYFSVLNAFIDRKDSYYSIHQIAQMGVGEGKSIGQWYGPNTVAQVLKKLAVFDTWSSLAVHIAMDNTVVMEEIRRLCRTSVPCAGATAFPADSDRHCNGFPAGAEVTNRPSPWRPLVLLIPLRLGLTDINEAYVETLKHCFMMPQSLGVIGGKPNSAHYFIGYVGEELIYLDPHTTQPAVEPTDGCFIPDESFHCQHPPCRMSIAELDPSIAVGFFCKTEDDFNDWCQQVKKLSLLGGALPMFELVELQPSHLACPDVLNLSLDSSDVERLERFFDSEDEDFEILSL

[2] = target: T1, Cysteine protease ATG4B (Homo sapiens); test: Inhibition of ATG4B (unknown origin) at 100 uM incubated up to 1 hr in presence of fluorescent protein substrate by FRET-based-LC3 cleavage assay relative to control
K562 [3] = test: Synergistic induction of apoptosis in human K562 cells assessed as reduction in cell viability at 5 to 10 uM in presence of 0.5 uM imatinib incubated for 72 hrs by Annexin V-APC and propidium iodide staining based flow cytometry relative to compound alone; format: functional
Cysteine protease ATG4B = target: T2, Cysteine protease ATG4B (Homo sapiens, UniProt Q9Y4P1); test: Inhibition of ATG4B (unknown origin) incubated up to 1 hr in presence of fluorescent protein substrate by FRET-based-LC3 cleavage assay
T2 sequence (Q9Y4P1 whole entry): T1 sequence (whole entry)

[4] = Cytotoxicity against human MDA-MB-231-R8 cells assessed as induction of cell killing incubated for 72 hrs by crystal violet staining based assay; format: functional
[5] = Cytotoxicity against human SUM149PT-R75 cells assessed as induction of cell killing incubated for 72 hrs by crystal violet staining based assay; format: functional
Homo sapiens [6] = species on record: Homo sapiens; test: Cytotoxicity against human CD34+ CML cells obtained from IM-nonresponding patient assessed as reduction in colony forming cells at 10 uM in presence of 150 nM DA incubated for 12 to 14 days; format: functional, cell-based
MDA-MB-231 [7] = test: Inhibition of autophagic flux in wortmannin-treated human MDA-MB-231 cells assessed as increase in p62 levels at 50 uM by Western blot analysis; format: functional, cell-based
Bone marrow cell = test: Cytotoxicity against human CD34+ normal bone marrow cells […] assessed as reduction in colony forming cells up to 10 uM incubated for 12 to 14 days; format: cell-based
K562 [8] = test: Synergistic cytotoxicity against human K562 cells assessed as reduction in cell viability at 5 to 10 uM in presence of 0.5 uM imatinib incubated for 72 hrs by trypan blue staining based assay relative to compound alone; format: functional
SUM149PT = test: Cytotoxicity against human SUM149PT cells assessed as induction of cell killing incubated for 72 hrs by crystal violet staining based assay; format: functional
Homo sapiens [9] = species on record: Homo sapiens; test: Cytotoxicity against human CD34+ CML cells obtained from IM-nonresponding patient assessed as reduction in colony forming cells at 10 uM in presence of 5 imatinib incubated for 12 to 14 days; format: functional, cell-based
BV-173 = test: Cytotoxicity against human BV173 cells assessed as reduction in colony forming cells at 5 to 10 uM in presence of 0.25 to 0.5 uM imatinib incubated for 2 weeks; format: functional, cell-based
MDA-MB-231 [10] = test: Cytotoxicity against human MDA-MB-231 cells assessed as induction of cell killing incubated for 72 hrs by crystal violet staining based assay; format: functional; settings: MDA-MB-231, 72 h
MDA-MB-231 [11] = test: Inhibition of autophagic flux in bafilomycin A-treated human MDA-MB-231 cells assessed as increase in p62 levels at 50 uM by Western blot analysis; format: functional, cell-based
MDA-MB-231 [12] = test: Inhibition of autophagic flux in wortmannin-treated human MDA-MB-231 cells assessed as increase in LC3B-II levels at 50 uM by Western blot analysis; format: functional, cell-based
MDA-MB-231 [13] = test: Inhibition of autophagic flux in bafilomycin A-treated human MDA-MB-231 cells assessed as increase in LC3B-II levels at 50 uM by Western blot analysis; format: functional, cell-based

## O=C(Nc1ncc([N+](=O)[O-])s1)NC(Cc1ccccc1)C(=O)O (stereo not drawn)
[1]
  inhibition: 0%
[2]
  inhibition: 17%

## O=C(NCc1ccccc1)Nc1ncc([N+](=O)[O-])s1
K562 [3]
  Activity: Active
Cysteine protease ATG4B
  pIC50: 5.77
[4]
  pIC50: 4.51 to 4.63
[5]
  pIC50: 4.47 to 4.61
Homo sapiens [6]
  Activity: Active
MDA-MB-231 [7]
  Activity: Active
Bone marrow cell
  Activity: Non-Toxic
K562 [8]
  Activity: Active
SUM149PT
  pIC50: 4.48 to 4.59
Homo sapiens [9]
  Activity: Active
BV-173
  Activity: Active
MDA-MB-231 [10]
  pIC50: 4.23 to 4.37
MDA-MB-231 [11]
  Activity: Active
MDA-MB-231 [12]
  Activity: Active
MDA-MB-231 [13]
  Activity: Active

## O=C(O)CCC(NC(=O)Nc1ncc([N+](=O)[O-])s1)C(=O)O (stereo not drawn)
[1]
  inhibition: 10%
[2]
  inhibition: 27%

## O=C(Nc1ccccn1)Nc1ncc([N+](=O)[O-])s1
[1]
  inhibition: 0%
[2]
  inhibition: 3%

## COc1ccc(CNC(=O)Nc2ncc([N+](=O)[O-])s2)cc1
Cysteine protease ATG4B
  pIC50: 5.80
[4]
  pIC50: 5.04 to 5.23
[5]
  pIC50: 4.45 to 4.58
SUM149PT
  pIC50: 4.65 to 4.82
MDA-MB-231 [10]
  pIC50: 4.63 to 4.75

## O=C(Nc1ccccc1)Nc1ncc([N+](=O)[O-])s1
[1]
  inhibition: 17%
[2]
  inhibition: 21%
